The values below come from ChEMBL document CHEMBL3351987, “Synthesis and biological evaluation of isoprenylated coumarins as potential anti-pancreatic cancer agents” (2014).

Assay [1] is described as follows: Cytotoxicity against human PANC1 cells under nutrient-rich condition after 24 hrs by WST8 dye based assay. In kind it is functional. The note with it: PANC-1, 24 h, read-out: LC50 (the source's name).
Assay [2] relates to PANC-1. The assay can be described thus: Stimulation of cell growth in human PANC1 cells at 6.25 to 50 uM under nutrient-deprived condition after 24 hrs by WST8 dye based assay. It counts as functional.
Assay [3] is described as follows: Cytotoxicity against human PANC1 cells under nutrient-deprived condition after 24 hrs by WST8 dye based assay. In kind it is functional. Particulars: PANC-1, 24 h, read-out: LC50 (the source's name). Background: Tetrazolium dyes change colour on reduction, which living cells bring about.
Assay [4] relates to PANC-1. Kind of assay: Induction of apoptosis in human PANC1 cells under nutrient-deprived condition after 24 hrs. It counts as functional, cell-based.

Regarding `CC(C)=CCC/C(C)=C/CO` [GERANIOL], the CC50 in assay [1] is over 100 µM. Besides, the Activity with PANC-1 [2] amounted to 20%.

As for `CC(C)=CCC/C(C)=C/COc1ccc2ccc(=O)oc2c1` [AURAPTENE], the results for the CC50 in assay [3] and in assay [1] were 21 µM and over 100 µM, respectively.

As for `CC(C)=CCOc1cc2ccccc2oc1=O`, the CC50 in assay [3] and in assay [1] was over 100 µM in each case.

With `O=c1ccc2cc(O)ccc2o1` [6-HYDROXYCOUMARIN], the CC50 in assay [3] and in assay [1] was over 100 µM throughout.

Regarding `CC(C)=CCC/C(C)=C/CC/C(C)=C/COc1ccc2ccc(=O)oc2c1` [UMBELLIPRENIN], the CC50 in assay [3] is 18 µM; in assay [1] it was over 100 µM.

Turning to `CC(C)=CCC/C(C)=C/CC/C(C)=C/COc1cc2ccccc2oc1=O`, the CC50 in assay [3] was 12 µM; in assay [1], over 100 µM.

`CC(C)=CCC/C(C)=C/CC/C(C)=C/CO` [FARNESOL]: the CC50 in assay [1] was over 100 µM. In addition, the Activity in the assay with PANC-1 [2] is 40%.

With `CC(C)=CCOc1ccc2ccc(=O)oc2c1` [7-PRENYLOXYCOUMARIN], the results for the CC50 in assay [3] and in assay [1] were 83 µM and over 100 µM, respectively.

As for `O=c1oc2ccccc2cc1O` [3-HYDROXYCOUMARIN], the CC50 in assay [3] and in assay [1] was over 100 µM in each case.

`CC(C)=CCOc1ccc2oc(=O)ccc2c1`: the CC50 in assay [3] and in assay [1] was over 100 µM throughout.

As for `CC(C)=CCO`, the CC50 in assay [3] and in assay [1] was over 100 µM each time.

Turning to `CC(C)=CCC/C(C)=C/CC/C(C)=C/COc1ccc2oc(=O)ccc2c1`, the CC50 is 4 µM in assay [3] and over 100 µM in assay [1]. In addition, the Activity result in the assay with PANC-1 [4] is “Dose-dependent effect”.

Turning to `CC(C)=CCC/C(C)=C/COc1ccc2oc(=O)ccc2c1`, the figures for the CC50 in assay [3] and in assay [1] were 12 µM and over 100 µM, respectively.

Turning to `O=c1ccc2ccc(O)cc2o1` [UMBELLIFERONE], the CC50 in assay [3] and in assay [1] was over 100 µM each time.

As for `CC(C)=CCC/C(C)=C/COc1cc2ccccc2oc1=O`, the results for the CC50 in assay [3] and in assay [1] were 37 µM and over 100 µM, respectively.
